Test results from patent US11369665B2, “Anti-inflammatory peptides and composition comprising the same” (GemVax & KAEL Co., Ltd., priority 2012, dated 2022).

What was measured:
neural stem cells = assay: Co-treatment amyloid-β and PEP-1: cell mobility (migration); type: cell-based, rat; details: 20 μM amyloid-β protein
Description: Cell mobility is a vital matter due to the nature of neural stem cell. […] (Refer to FIG. 11).

reactive oxygen species = assay: Reactive oxygen species by DCF-DA staining in neural stem cells; type: cell-based, rat; details: 20 μM amyloid-β protein, PEP-1 1 μM, 10 μM, 50 μM
Procedure: The mechanism of action of PEP-1's protective effect on apoptosis by amyloid-β protein was investigated. First, it was investigated whether PEP-1 is capable of minimizing the oxidative damage caused by amyloid-β protein. Change in generation of reactive oxygen species after treatment with amyloid-β protein and PEP-1 was observed by using DCF-DA staining (Molecular Probes, Eugene, Oreg.). In the group in which reactive oxygen species increased due to 20 μM of amyloid-β protein, the increased reactive oxygen species decreased by PEP-1 treatment (1 μM, 10 μM, 50 μM) (Refer to FIG. 13).

EARPALLTSRLRFIPK [PEP-1]
cell mobility decreased by amyloid-β (neural stem cells; FIG. 11): restored
cell mobility compared to control (neural stem cells; PEP-1 10 μM): increased even more
reactive oxygen species increased by amyloid-β (reactive oxygen species): decreased
